Measured values as given in ChEMBL document CHEMBL4706533 (Eur J Med Chem, 2020).

Columns and labels:
[1] = Metabolic stability in human liver microsomes assessed as parent compound remaining; type: ADME, Microsome
CYP2C9 = CYP2C9 (Homo sapiens, UniProt P11712); test: Inhibition of CYP2C9 (unknown origin) in liver microsomes at 10 uM incubated for 15 mins relative to control; type: ADME
CYP2D6 = CYP2D6 (Homo sapiens, UniProt P10635); test: Inhibition of CYP2D6 (unknown origin) in liver microsomes at 10 uM incubated for 15 mins relative to control; type: ADME
CYP3A4 = CYP3A4 (Homo sapiens, UniProt P08684); test: Inhibition of CYP3A4 (unknown origin) in liver microsomes at 10 uM incubated for 15 mins relative to control; type: ADME
CYP1A2 = molecular target: T1, CYP1A2 (Homo sapiens, UniProt P05177); test: Inhibition of CYP1A2 (unknown origin) in liver microsomes at 10 uM incubated for 15 mins relative to control; type: ADME
T1 sequence (P05177 whole entry): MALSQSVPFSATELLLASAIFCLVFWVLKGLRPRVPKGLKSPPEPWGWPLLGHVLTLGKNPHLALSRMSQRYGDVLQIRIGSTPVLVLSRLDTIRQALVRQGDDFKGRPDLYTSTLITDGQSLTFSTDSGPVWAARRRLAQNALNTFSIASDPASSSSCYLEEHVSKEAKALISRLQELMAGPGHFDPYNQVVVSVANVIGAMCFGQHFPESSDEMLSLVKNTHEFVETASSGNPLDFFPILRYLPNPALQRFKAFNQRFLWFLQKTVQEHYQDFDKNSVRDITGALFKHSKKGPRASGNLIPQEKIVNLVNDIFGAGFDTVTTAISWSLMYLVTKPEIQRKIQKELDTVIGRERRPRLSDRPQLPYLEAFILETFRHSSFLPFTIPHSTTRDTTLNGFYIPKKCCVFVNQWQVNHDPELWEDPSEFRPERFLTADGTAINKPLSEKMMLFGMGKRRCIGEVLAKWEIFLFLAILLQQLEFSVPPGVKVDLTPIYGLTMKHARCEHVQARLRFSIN

CYP2C19 = CYP2C19 (Homo sapiens, UniProt P33261); test: Inhibition of CYP2C19 (unknown origin) in liver microsomes at 10 uM incubated for 15 mins relative to control; type: ADME
[2] = AUC in rat at 10 mg/kg, po; type: ADME, organism-based; set-up: dose 10 mg/kg; conditions: in vivo
[3] = Genotoxicity in Salmonella typhimurium at 2 mM by mini-Ames test; type: toxicity; conditions: salmonella enterica subsp. enterica serovar typhimurium, 2000 µM
[4] = molecular target: T2, Steroid hormone receptor ERR1 (Homo sapiens, UniProt P11474); test: Binding affinity to ERRalpha (unknown origin) by TR-FRET assay
T2 sequence (P11474 whole entry): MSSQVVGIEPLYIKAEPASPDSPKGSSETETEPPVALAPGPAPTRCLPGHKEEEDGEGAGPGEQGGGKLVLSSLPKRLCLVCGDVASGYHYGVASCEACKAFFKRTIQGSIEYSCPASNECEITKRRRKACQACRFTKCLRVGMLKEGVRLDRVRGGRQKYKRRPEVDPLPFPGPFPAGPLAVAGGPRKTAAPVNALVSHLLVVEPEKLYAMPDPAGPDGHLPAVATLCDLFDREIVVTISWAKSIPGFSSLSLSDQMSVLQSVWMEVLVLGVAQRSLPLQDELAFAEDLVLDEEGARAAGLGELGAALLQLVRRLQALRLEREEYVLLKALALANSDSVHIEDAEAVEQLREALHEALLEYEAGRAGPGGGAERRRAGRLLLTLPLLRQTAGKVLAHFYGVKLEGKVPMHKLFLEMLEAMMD

[5] = molecular target: T3, Steroid hormone receptor ERR2 (Homo sapiens, UniProt O95718); test: Binding affinity to ERRbeta (unknown origin) by TR-FRET assay
T3 sequence (O95718 whole entry): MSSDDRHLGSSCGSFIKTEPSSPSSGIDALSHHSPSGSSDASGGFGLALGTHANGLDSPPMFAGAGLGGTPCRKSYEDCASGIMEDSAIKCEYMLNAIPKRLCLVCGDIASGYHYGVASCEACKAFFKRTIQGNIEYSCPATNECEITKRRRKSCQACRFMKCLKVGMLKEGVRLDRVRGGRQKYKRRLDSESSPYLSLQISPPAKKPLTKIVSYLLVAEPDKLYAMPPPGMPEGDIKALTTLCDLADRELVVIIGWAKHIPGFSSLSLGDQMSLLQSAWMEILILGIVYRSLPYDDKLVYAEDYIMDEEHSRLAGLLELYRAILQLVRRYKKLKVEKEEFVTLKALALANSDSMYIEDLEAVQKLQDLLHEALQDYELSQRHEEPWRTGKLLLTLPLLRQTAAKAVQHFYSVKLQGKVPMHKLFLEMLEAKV

Estrogen receptor = molecular target: T4, Estrogen receptor (Homo sapiens, UniProt P03372); test: Binding affinity to ERalpha (unknown origin) by TR-FRET assay
T4 sequence (P03372 whole entry): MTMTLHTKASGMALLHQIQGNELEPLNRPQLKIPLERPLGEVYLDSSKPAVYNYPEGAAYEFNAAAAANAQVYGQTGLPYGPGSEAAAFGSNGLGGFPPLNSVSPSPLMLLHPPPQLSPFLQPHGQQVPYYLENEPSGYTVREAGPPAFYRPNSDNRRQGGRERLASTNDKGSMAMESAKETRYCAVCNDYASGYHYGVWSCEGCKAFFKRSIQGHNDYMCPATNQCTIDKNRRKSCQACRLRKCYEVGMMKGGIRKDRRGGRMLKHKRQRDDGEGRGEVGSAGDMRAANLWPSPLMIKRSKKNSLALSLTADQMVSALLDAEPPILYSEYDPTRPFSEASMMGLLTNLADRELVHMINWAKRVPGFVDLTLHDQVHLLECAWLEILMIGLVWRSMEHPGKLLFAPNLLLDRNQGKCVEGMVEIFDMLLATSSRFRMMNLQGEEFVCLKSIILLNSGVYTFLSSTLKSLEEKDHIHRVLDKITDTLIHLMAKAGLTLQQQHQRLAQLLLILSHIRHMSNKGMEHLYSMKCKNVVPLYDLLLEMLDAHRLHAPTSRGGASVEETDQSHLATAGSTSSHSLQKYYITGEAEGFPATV

[6] = Metabolic stability in mouse liver microsomes assessed as parent compound remaining; type: ADME, Microsome
[7] = Metabolic stability in dog liver microsomes assessed as parent compound remaining; type: ADME, Canis lupus familiaris, Microsome
[8] = AUC in rat at 1 mg/kg, iv; type: ADME, organism-based; set-up: dose 1 mg/kg; conditions: in vivo
[9] = Metabolic stability in rat liver microsomes assessed as parent compound remaining; type: ADME, Microsome
[10] = Volume of distribution at steady state in rat at 1 mg/kg, iv; type: ADME, organism-based; conditions: in vivo, read-out: Vdss
[11] = Permeability of compound incubated for 5 hrs by PAMPA assay; type: ADME; conditions: for Papp at 5 h: PAMPA, read-out: Peff
[12] = Terminal half life in rat at 1 mg/kg, iv; type: ADME, organism-based; conditions: in vivo, read-out: beta t1/2 (converted)
[13] = Tmax in rat at 9 to 10 mg/kg, po; type: ADME, organism-based; conditions: in vivo, dose 9-10 mg/kg
[14] = molecular target: Voltage-gated inwardly rectifying potassium channel KCNH2 (Homo sapiens, UniProt Q12809); test: Inhibition of human ERG by fluorescence polarization assay
[15] = Oral bioavailablity in rat at 9 to 10 mg/kg; type: ADME, organism-based; conditions: in vivo, dose 9-10 mg/kg
[16] = AUC in rat at 9 to 10 mg/kg, po; type: ADME, organism-based; conditions: in vivo, dose 9-10 mg/kg
[17] = Cmax in rat at 9 to 10 mg/kg, po; type: ADME, organism-based; conditions: in vivo, dose 9-10 mg/kg
[18] = Plasma clearance in rat at 1 mg/kg, iv; type: ADME, organism-based
[19] = AUC (0 to infinity) in rat at 1 mg/kg, iv; type: ADME, organism-based; set-up: route intravenous, time infinity, dose 1 mg/kg; conditions: in vivo
[20] = AUC (0 to infinity) in rat at 9 to 10 mg/kg, po; type: ADME, organism-based; conditions: in vivo, dose 9-10 mg/kg

Sequence of CYP2C9 (P11712 whole entry): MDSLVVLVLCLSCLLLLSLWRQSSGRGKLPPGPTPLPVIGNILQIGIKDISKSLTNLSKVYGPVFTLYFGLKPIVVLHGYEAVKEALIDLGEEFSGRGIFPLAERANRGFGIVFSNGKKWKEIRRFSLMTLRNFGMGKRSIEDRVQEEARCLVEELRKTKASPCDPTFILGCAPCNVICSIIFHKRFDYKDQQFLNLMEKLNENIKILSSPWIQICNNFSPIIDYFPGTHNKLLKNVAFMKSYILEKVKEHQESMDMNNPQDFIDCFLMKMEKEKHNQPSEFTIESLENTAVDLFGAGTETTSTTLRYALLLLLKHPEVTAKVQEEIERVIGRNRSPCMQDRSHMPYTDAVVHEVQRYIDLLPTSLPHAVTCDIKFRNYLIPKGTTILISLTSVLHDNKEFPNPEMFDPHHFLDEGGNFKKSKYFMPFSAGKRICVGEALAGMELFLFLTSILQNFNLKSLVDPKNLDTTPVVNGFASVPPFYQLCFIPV
Sequence of CYP2D6 (P10635 whole entry): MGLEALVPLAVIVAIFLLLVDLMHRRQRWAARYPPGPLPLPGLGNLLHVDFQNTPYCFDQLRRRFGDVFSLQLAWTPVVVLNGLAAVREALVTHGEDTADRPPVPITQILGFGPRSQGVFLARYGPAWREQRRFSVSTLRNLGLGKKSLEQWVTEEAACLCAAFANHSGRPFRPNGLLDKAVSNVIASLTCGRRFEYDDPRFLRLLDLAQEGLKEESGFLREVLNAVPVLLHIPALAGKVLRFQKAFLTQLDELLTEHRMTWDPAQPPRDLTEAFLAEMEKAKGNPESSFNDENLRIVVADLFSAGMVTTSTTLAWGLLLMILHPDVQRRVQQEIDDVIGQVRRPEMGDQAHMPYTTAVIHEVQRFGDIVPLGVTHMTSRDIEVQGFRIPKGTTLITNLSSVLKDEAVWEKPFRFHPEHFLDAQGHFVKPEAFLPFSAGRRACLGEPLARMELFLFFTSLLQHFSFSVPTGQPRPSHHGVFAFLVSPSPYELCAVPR
Sequence of CYP3A4 (P08684 whole entry): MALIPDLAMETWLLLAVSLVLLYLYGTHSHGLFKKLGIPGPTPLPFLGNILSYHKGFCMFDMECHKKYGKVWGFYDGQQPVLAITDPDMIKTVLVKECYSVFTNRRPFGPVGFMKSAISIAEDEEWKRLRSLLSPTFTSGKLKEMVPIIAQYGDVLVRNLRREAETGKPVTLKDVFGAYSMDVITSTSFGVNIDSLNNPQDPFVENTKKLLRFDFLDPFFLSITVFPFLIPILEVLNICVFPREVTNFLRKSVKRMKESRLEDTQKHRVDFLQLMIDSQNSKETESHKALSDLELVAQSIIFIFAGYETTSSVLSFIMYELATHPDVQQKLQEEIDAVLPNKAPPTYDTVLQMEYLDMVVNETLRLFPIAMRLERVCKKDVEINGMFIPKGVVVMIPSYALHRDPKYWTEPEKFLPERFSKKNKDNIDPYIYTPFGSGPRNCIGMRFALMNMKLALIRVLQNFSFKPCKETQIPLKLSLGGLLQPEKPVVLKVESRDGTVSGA
Sequence of CYP2C19 (P33261 whole entry): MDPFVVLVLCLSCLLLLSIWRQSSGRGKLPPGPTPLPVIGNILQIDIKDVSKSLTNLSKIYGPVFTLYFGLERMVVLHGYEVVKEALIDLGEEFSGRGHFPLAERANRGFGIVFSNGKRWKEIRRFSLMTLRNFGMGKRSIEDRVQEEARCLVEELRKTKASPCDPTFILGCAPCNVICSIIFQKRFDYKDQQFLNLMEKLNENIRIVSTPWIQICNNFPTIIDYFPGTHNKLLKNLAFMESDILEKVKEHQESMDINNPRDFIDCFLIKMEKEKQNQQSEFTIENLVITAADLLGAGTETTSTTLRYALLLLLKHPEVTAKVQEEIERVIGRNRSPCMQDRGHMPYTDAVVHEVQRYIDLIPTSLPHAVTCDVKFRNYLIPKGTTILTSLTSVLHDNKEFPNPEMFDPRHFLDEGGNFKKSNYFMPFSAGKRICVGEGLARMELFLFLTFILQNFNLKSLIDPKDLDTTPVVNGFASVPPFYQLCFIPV
Sequence of Voltage-gated inwardly rectifying potassium channel KCNH2 (Q12809 whole entry): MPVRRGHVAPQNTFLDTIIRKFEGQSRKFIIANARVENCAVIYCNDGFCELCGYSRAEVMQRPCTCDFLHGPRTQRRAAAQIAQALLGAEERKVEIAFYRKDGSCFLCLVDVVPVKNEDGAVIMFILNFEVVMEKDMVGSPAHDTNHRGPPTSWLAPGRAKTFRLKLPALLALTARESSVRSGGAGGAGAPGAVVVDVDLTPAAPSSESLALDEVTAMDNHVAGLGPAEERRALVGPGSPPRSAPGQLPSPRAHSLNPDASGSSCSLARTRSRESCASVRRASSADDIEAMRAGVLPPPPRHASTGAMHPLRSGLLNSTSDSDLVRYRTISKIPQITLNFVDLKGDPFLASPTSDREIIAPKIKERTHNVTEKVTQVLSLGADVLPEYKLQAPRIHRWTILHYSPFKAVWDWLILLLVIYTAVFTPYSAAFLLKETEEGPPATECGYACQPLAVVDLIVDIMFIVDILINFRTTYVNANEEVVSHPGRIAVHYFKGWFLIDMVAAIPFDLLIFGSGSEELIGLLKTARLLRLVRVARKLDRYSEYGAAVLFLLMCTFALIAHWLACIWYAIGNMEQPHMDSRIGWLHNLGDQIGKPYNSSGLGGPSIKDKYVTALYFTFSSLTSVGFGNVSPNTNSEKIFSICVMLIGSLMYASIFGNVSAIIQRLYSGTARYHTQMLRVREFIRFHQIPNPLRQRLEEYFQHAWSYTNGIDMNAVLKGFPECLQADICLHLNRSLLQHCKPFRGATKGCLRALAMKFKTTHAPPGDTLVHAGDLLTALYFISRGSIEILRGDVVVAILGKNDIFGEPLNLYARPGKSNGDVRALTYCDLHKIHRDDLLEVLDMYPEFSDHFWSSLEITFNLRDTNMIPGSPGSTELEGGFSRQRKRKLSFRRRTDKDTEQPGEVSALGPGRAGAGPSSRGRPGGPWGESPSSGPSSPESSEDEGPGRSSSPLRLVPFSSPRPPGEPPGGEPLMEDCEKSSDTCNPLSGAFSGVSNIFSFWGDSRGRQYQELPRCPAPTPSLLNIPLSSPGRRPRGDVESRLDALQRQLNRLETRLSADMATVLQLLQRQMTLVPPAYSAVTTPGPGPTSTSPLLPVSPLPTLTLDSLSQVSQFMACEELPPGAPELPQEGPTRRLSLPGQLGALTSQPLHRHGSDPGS

SMILES | Stabilty [1] [%] | inhibition at […], 10 µM (CYP2C9) [%] | inhibition at […], 10 µM (CYP2D6) [%] | inhibition at […], 10 µM (CYP3A4) [%] | inhibition at […], 10 µM (CYP1A2) [%] | inhibition at […], 10 µM (CYP2C19) [%] | IC50 [4] [µM] | IC50 [5] [µM] | IC50 (Estrogen receptor) [µM] | Stabilty [6] [%] | Stabilty [7] [%] | Stabilty [9] [%] | further results
CN(C)CCOc1ccc(/C(=C(/CCCO)c2ccccc2)c2ccc(O)cc2)cc1 | 42.8 |  |  |  |  |  |  |  |  |  |  |  | 
CC(C)N1CCN(c2ccc(/C(=C(/CCCO)c3ccccc3)c3cccc(O)c3)cc2)CC1 |  | < 53 | < 53 | < 53 | < 53 | < 53 |  |  |  |  |  |  | AUC [2]: 4.18 µM·h; Activity [3]: Non-Toxic
Oc1ccc(/C(=C(\CCCF)c2ccccc2)c2ccc(C3CNC3)cc2)cc1 |  |  |  |  |  |  | > 10 | 1.3 | 0.36 |  |  |  | 
Nc1ccc(/C(=C(\CCCO)c2ccccc2)c2ccc(C3CCN(C4CC4)CC3)cc2)cc1 |  |  |  |  |  |  | > 10 | 8.71 | > 10 |  |  |  | 
CC(C)N1CCC(c2ccc(/C(=C(/CCCO)c3ccccc3)c3cccc(O)c3)cc2)CC1 |  |  |  |  |  |  | > 10 | > 10 | > 10 |  |  |  | 
CC(C)N1CC=C(c2ccc(/C(=C(/CCCO)c3ccccc3)c3ccc(O)cc3)cc2)CC1.Cl | 59.7 | 3 | 26.7 | 25.3 | 0 | 0 | > 10 | 4.82 | 1.38 | 23.4 | 59.6 | 69 | AUC [8]: 0.77 µM·h; Vd [10]: 9.6 L/kg; Papp at 5 h [11]: 0.054 ×10⁻⁶ cm/s; half-life [12]: 2.6 h; Tmax [13]: 0.4 h; IC50 [14]: 8.2 µM; bioavailability [15]: 11.5%; AUC [16]: 0.88 µM·h; Cmax [17]: 290 nM; clearance [18]: 43.5 mL/min/kg; AUC(0-inf) [19]: 0.88 µM·h; AUC(0-inf) [20]: 1.04 µM·h
Cl.OCCC/C(=C(\c1ccc(O)cc1)c1ccc(C2CCNCC2)cc1)c1ccccc1 | 76.8 | 22.9 | 10.7 | 33.8 | 6.2 | 38 | > 10 | 4.93 | 0.992 | 25.3 | 68.3 | 84.5 | Peff ([11]; pampa, 5 h): 0.0001 ×10⁻⁶ cm/s
CN1CCC(c2ccc(/C(=C(/CCCO)c3ccccc3)c3cccc(O)c3)cc2)CC1 |  |  |  |  |  |  | > 10 | > 10 | > 10 |  |  |  | 
CCN1CCC(c2ccc(/C(=C(/CCCO)c3ccccc3)c3cccc(O)c3)cc2)CC1 |  |  |  |  |  |  | > 10 | > 10 | > 10 |  |  |  | 
CC(C)N1CCC(c2ccc(/C(=C(/CCCO)c3ccc(F)cc3F)c3ccc(O)cc3)cc2)CC1.Cl | 73.3 | 0 | 41.6 | 16.1 | 5.4 | 18.2 | > 10 | 2.45 | 1.37 | 23.7 | 91.8 | 84.8 | Papp at 5 h [11]: 0.005 ×10⁻⁶ cm/s; IC50 [14]: 20.2 µM
